Reference: patent US9951049B2, “Pyrazole linked benzimidazole conjugates and a process for preparation thereof” (Council of Scientific & Industrial Reseach, priority 2014, dated 2018)
Like-named read-outs stand apart in the source and are kept apart here.

Key:
[1] = test system: SW-620; experiment: NCI SRB screen, SW-620; details: Homo sapiens, SW-620, 48 h, read-out: GI50 values
[2] = test system: Melanoma cell lines; experiment: NCI SRB screen, Melanoma panel average; details: Homo sapiens, 48 h, read-out: Log10 GI50 (converted)
[3] = test system: OVCAR-5; experiment: NCI SRB screen, OVCAR-5; details: Homo sapiens, OVCAR-5, 48 h, read-out: GI50 values
[4] = test system: UACC-257; experiment: NCI SRB screen, UACC-257; details: Homo sapiens, UACC-257, 48 h, read-out: GI50 values
[5] = test system: RPMI-8226; experiment: NCI SRB screen, RPMI-8226; details: Homo sapiens, RPMI-8226, 48 h, read-out: GI50 values
[6] = test system: Renal cancer cell lines; experiment: NCI SRB screen, Renal panel average; details: Homo sapiens, 48 h, read-out: Log10 GI50 (converted)
[7] = test system: CCRF-CEM; experiment: NCI SRB screen, CCRF-CEM; details: Homo sapiens, 48 h, read-out: GI50 values
[8] = test system: HT29; experiment: NCI SRB screen, HT29; details: Homo sapiens, HT-29, 48 h, read-out: GI50 values
[9] = test system: UACC-62; experiment: NCI SRB screen, UACC-62; details: Homo sapiens, UACC-62, 48 h, read-out: GI50 values
[10] = test system: NCI-H460; experiment: NCI SRB screen, NCI-H460; details: Homo sapiens, NCI-H460, 48 h, read-out: GI50 values
[11] = test system: HCT-116; experiment: NCI SRB screen, HCT-116; details: Homo sapiens, HCT-116, 48 h, read-out: GI50 values
[12] = test system: SNB-75; experiment: NCI SRB screen, SNB-75; details: Homo sapiens, SNB-75, 48 h, read-out: GI50 values
[13] = test system: KM12; experiment: NCI SRB screen, KM12; details: Homo sapiens, KM12, 48 h, read-out: GI50 values
[14] = test system: K-562; experiment: NCI SRB screen, K-562; details: Homo sapiens, K562, 48 h, read-out: GI50 values
[15] = test system: OVCAR-8; experiment: NCI SRB screen, OVCAR-8; details: Homo sapiens, OVCAR-8, 48 h, read-out: GI50 values
[16] = test system: NCI-H522; experiment: NCI SRB screen, NCI-H522
[17] = test system: CAKI-1; experiment: NCI SRB screen, CAKI-1; details: Homo sapiens, CAKI-1, 48 h, read-out: GI50 values
[18] = test system: SNB-19; experiment: NCI SRB screen, SNB-19; details: Homo sapiens, SNB-19, 48 h, read-out: GI50 values
[19] = test system: SK-MEL-28; experiment: NCI SRB screen, SK-MEL-28; details: Homo sapiens, SK-MEL-28, 48 h, read-out: GI50 values
[20] = test system: MDA-MB-231/ATCC; experiment: NCI SRB screen, MDA-MB-231/ATCC; details: Homo sapiens, MDA-MB-231, 48 h, read-out: GI50 values
[21] = test system: SF-268; experiment: NCI SRB screen, SF-268; details: Homo sapiens, SF-268, 48 h, read-out: GI50 values
[22] = test system: HS 578T; experiment: NCI SRB screen, HS 578T; details: Homo sapiens, 48 h, read-out: GI50 values
[23] = test system: PC-3; experiment: NCI SRB screen, PC-3; details: Homo sapiens, PC-3, 48 h, read-out: GI50 values
[24] = test system: T-47D; experiment: NCI SRB screen, T-47D; details: Homo sapiens, T47D, 48 h, read-out: GI50 values
[25] = test system: HCT-15; experiment: NCI SRB screen, HCT-15; details: Homo sapiens, HCT-15, 48 h, read-out: GI50 values
[26] = test system: COLO-205; experiment: NCI SRB screen, COLO-205; details: Homo sapiens, COLO 205, 48 h, read-out: GI50 values
[27] = test system: Ovarian cancer cell lines; experiment: NCI SRB screen, Ovarian panel average; details: Homo sapiens, 48 h, read-out: Log10 GI50 (converted)
[28] = test system: HCC-2998; experiment: NCI SRB screen, HCC-2998; details: Homo sapiens, HCC 2998, 48 h, read-out: GI50 values
[29] = test system: Colon cancer cell lines; experiment: NCI SRB screen, Colon panel average; details: Homo sapiens, 48 h, read-out: Log10 GI50 (converted)
[30] = test system: TK-10; experiment: NCI SRB screen, TK-10; details: Homo sapiens, TK-10, 48 h, read-out: GI50 values
[31] = test system: UO-31; experiment: NCI SRB screen, UO-31; details: Homo sapiens, UO-31, 48 h, read-out: GI50 values
[32] = test system: OVCAR-4; experiment: NCI SRB screen, OVCAR-4; details: Homo sapiens, OVCAR-4, 48 h, read-out: GI50 values
[33] = Homo sapiens, NCI-H522, 48 h, read-out: GI50 values, Non-small cell lung, NCI-H522

| Compound | GI50 [1] | GI50 [2] | GI50 [3] | GI50 [4] | GI50 [5] | GI50 [6] | GI50 [7] | GI50 [8] | GI50 [9] | GI50 [10] | GI50 [11] | GI50 [12] | GI50 [13] | GI50 [14] | GI50 [15] | GI50 [16, 33] | GI50 [17] | GI50 [18] | GI50 [19] | GI50 [20] | further results |
| --- | --- | --- | --- | --- | --- | --- | --- | --- | --- | --- | --- | --- | --- | --- | --- | --- | --- | --- | --- | --- | --- |
| COc1cc(-c2cc(-c3nc4ccccc4[nH]3)[nH]n2)cc(OC)c1OC [6f, 2-(3-(3,4,5-trimethoxyphenyl)-1H-pyrazol-5-yl)-1H-benzo[d]imidazole] | 7.73 µM | 2.09 µM | 1.3 µM | 2.1 µM | 1.2 µM | 2.63 µM | 2.12 µM | 7.16 µM | 1.64 µM | 3.64 µM | 3.15 µM | 2.83 µM | 3.15 µM | 3.08 µM | 2.35 µM | 1.84 µM | 2.24 µM | 1.78 µM | 2.72 µM | 3.22 µM | GI50 ([16]; read-out: GI50 values, Non-small cell lung, NCI-H522, 48 h): 1.87 µM; GI50 [21]: 6.43 µM; GI50 [22]: 6.89 µM; GI50 [23]: 2.1 µM; GI50 [24]: 1.11 µM; GI50 [25]: 3.43 µM; GI50 [26]: 3.98 µM; GI50 [27]: 3.24 µM; GI50 [28]: 7.1 µM; GI50 [29]: 4.79 µM; GI50 [30]: 4.07 µM; GI50 [31]: 2.21 µM; GI50 [32]: 1.26 µM |
| c1ccc2[nH]c(-c3cc(-c4ccc5c(c4)OCO5)n[nH]3)nc2c1 [6g, 2-(3-(benzo[d][1,3]dioxol-5-yl)-1H-pyrazol-5-yl)-1H-benzo[d]imidazole] | 5.87 µM | 3.02 µM | 1.49 µM | 6 µM | 1.14 µM | 2.04 µM | 2.52 µM | 3.66 µM | 3.08 µM | 4.57 µM | 6.36 µM | 1.01 µM | 1.75 µM | 3.83 µM | 3.97 µM | 1.98 µM | 2.74 µM | 5.92 µM | 4.85 µM | 4.12 µM | GI50 [21]: 4.77 µM; GI50 [22]: 3.8 µM; GI50 [23]: 3.64 µM; GI50 [24]: 3.32 µM; GI50 [25]: 3.86 µM; GI50 [26]: 4.78 µM; GI50 [27]: 4.37 µM; GI50 [28]: 3.74 µM; GI50 [29]: 4.07 µM; GI50 [30]: 1.09 µM; GI50 [31]: 3.98 µM; GI50 [32]: 2.16 µM |
| Fc1ccc2[nH]c(-c3cc(-c4ccc5c(c4)OCO5)n[nH]3)nc2c1 [7g, 2-(3-(benzo[d][1,3]dioxol-5-yl)-1H-pyrazol-5-yl)-5-fluoro-1H-benzo[d]imidazole] | 9.34 µM | 4.57 µM | 6.44 µM | 1.02 µM | 1.09 µM | 4.57 µM | 2.65 µM | 5.77 µM | 4.77 µM | 6.06 µM | 4.5 µM | 2.8 µM | 2.96 µM | 4.81 µM | 3.43 µM | 2.56 µM | 2.71 µM | 10 µM | 8.87 µM | 2.22 µM | GI50 [21]: 6.05 µM; GI50 [22]: 9.53 µM; GI50 [23]: 3.78 µM; GI50 [24]: 3.21 µM; GI50 [25]: 3.73 µM; GI50 [26]: 8.11 µM; GI50 [27]: 6.17 µM; GI50 [28]: 5.37 µM; GI50 [29]: 5.37 µM; GI50 [30]: 1.3 µM; GI50 [31]: 2.93 µM; GI50 [32]: 1.37 µM |
| COc1cc(-c2cc(-c3nc4cc(Cl)ccc4[nH]3)[nH]n2)cc(OC)c1OC [8f, 5-chloro-2-(3-(3,4,5-trimethoxyphenyl)-1H-pyrazol-5-yl)-1H-benzo[d]imidazole] | 4.99 µM | 2.45 µM | 1.21 µM | 2.6 µM | 1.65 µM | 3.16 µM | 2.48 µM | 4.14 µM | 1.97 µM | 3.65 µM | 3.45 µM | 2.71 µM | 3.45 µM | 3.04 µM | 2.26 µM | 1.9 µM | 2.8 µM | 7.25 µM | 2.42 µM | 3.94 µM | GI50 [21]: 3.6 µM; GI50 [22]: 3.58 µM; GI50 [23]: 2.47 µM; GI50 [24]: 1.58 µM; GI50 [25]: 2.9 µM; GI50 [26]: 3.18 µM; GI50 [27]: 3.55 µM; GI50 [28]: 5.98 µM; GI50 [29]: 3.98 µM; GI50 [30]: 3.52 µM; GI50 [31]: 2.64 µM; GI50 [32]: 1.38 µM |
| COc1ccc2[nH]c(-c3cc(-c4cc(OC)c(OC)c(OC)c4)n[nH]3)nc2c1 [9f, 5-methoxy-2-(3-(3,4,5-trimethoxyphenyl)-1H-pyrazol-5-yl)-1H-benzo[d]imidazole] | 2.89 µM | 1.32 µM | 3.03 µM | 1.67 µM | 0.64 µM | 2.24 µM | 1.29 µM | 2.76 µM | 1.12 µM | 2.64 µM | 1.81 µM | 2.23 µM | 1.7 µM | 2.01 µM | 1.15 µM | 1.21 µM | 1.79 µM | 2.98 µM | 1.9 µM | 2.87 µM | GI50 [21]: 2.74 µM; GI50 [22]: 2.89 µM; GI50 [23]: 1.03 µM; GI50 [24]: 0.34 µM; GI50 [25]: 2.5 µM; GI50 [26]: 1.61 µM; GI50 [27]: 2.04 µM; GI50 [28]: 3.03 µM; GI50 [29]: 2.29 µM; GI50 [30]: 2.21 µM; GI50 [31]: 1.57 µM; GI50 [32]: 1.24 µM |
| COc1cc(-c2cc(-c3nc4cc(Cl)c(Cl)cc4[nH]3)[nH]n2)cc(OC)c1OC [10f, 5,6-dichloro-2-(3-(3,4,5-trimethoxyphenyl)-1H-pyrazol-5-yl)-1H-benzo[d]imidazole] | 4.47 µM | 2.82 µM | 7.08 µM | 3.77 µM | 1.75 µM | 3.55 µM | 2.35 µM | 3.42 µM | 1.94 µM | 3.33 µM | 2.78 µM | 3.12 µM | 3.56 µM | 3.3 µM | 2.51 µM | 2.02 µM | 3.81 µM | 5.47 µM | 3.07 µM | 4.14 µM | GI50 [21]: 3.95 µM; GI50 [22]: 4.53 µM; GI50 [23]: 2.2 µM; GI50 [24]: 1.87 µM; GI50 [25]: 2.89 µM; GI50 [26]: 3.77 µM; GI50 [27]: 4.47 µM; GI50 [28]: 4.47 µM; GI50 [29]: 3.63 µM; GI50 [30]: 4.61 µM; GI50 [31]: 2.47 µM; GI50 [32]: 2.21 µM |
